In patent US7504513B2, “Thiazolyl-benzimidazoles” (Hoffman-La Roche Inc., priority 2006, dated 2009):

Target: T1, GST-Plk1 (Homo sapiens, UniProt P53350)
T1 construct: Full-length, active GST-Plk1 was purified from Sf9 insect cells; made in house; host or cells: Sf9 insect cells
Assay: Biochemical Characterization Assay: HTRF kinase assay, GST-Plk1 phosphorylation of GST-p53
Conditions: full-length active GST-Plk1, GST-p53 substrate, ATP, 37° C. for 35 minutes, HTRF signal
Protocol: Full-length, active GST-Plk1 was purified from Sf9 insect cells, and full-length GST-p53 was purified in E. coli. Anti-phospho p53 antibody was purchased from Cell Signaling Technology. Europium-conjugated anti-rabbit antibody was purchased from PerkinElmer Life and Analytical Sciences. APC-conjugated anti-GST antibody was purchased from Prozyme.
To two microliters of compound (0.6 nM-4 mM) in DMSO or plain DMSO for control wells, 38 microliters of 20 mM HEPES pH 7, 50 mM NaCl, 10 mM MgCl2, 0.5 mM TCEP, 0.1 mM sodium orthovanadate, 0.1 mg/ml BSA, and 0.05% Triton X-100 (Kinase Assay Buffer) were added. Eight microliters of the compound solution were added to a 384-well black microtiter plate, followed by six microliters of GST-p53 (17 ug/ml) and ATP (333 uM) in Kinase Assay Buffer. Six microliters of GST-Plk1 (3 ug/ml) in Kinase Assay Buffer were then added and the solution incubated at 37° C. for 35 minutes. Six microliters of solution containing 43 mM EDTA to stop the reaction and a 1:600 dilution of anti-phospho-p53 antibody in 20 mM HEPES pH 7, 50 mM NaCl, and 0.5 mg/ml BSA (Antibody Binding Buffer) were added and the solution incubated at 37° C. for 30 minutes. Six microliters of solution containing 9 nM europium-conjugated anti-rabbit antibody and 120 nM APC-conjugated anti-GST antibody in Antibody Binding Buffer were then added and the mixture incubated at room temperature for 1.5 hours. The HTRF signal was read on the Envision reader (PerkinElmer Life and Analytical Sciences).

T1 sequence (P53350 whole entry): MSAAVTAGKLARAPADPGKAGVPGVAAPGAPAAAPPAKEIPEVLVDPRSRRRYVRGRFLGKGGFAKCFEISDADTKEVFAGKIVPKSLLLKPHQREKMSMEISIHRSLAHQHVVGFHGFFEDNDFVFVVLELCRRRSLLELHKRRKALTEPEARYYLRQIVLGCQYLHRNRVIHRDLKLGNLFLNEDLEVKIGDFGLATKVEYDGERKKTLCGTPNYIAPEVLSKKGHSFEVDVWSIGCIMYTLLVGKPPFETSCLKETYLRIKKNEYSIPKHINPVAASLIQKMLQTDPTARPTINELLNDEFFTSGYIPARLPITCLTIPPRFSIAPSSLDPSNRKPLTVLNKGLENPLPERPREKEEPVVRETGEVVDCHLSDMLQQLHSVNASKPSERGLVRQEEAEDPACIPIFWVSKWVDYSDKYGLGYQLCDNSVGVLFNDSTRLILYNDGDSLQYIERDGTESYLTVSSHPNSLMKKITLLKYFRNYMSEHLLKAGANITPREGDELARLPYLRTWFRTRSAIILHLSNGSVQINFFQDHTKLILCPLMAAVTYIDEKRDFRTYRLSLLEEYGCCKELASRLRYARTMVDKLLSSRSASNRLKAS

Molecule	IC50
1-(5-Carboxy-4-phenyl-thiazol-2-yl)-1H-benzoimidazole-4-carboxylic acid and 3-(5-carboxy-4-phenyl-thiazol-2-yl)-3H-benzoimidazole-4-carboxylic acid [Example 8]	6.42 µM
2-(4-Hydroxy-benzoimidazol-1-yl)-4-phenyl-thiazole-5-carboxylic acid and 2-(7-hydroxy-benzoimidazol-1-yl)-4-phenyl-thiazole-5-carboxylic acid [Example 7]	7.47 µM
2-(5-Chlorobenzoimidazol-1-yl)-4-phenylthiazole-5-carboxylic acid and 2-(6-chlorobenzoimidazol-1-yl)-4-phenylthiazole-5-carboxylic acid [Example 14]	0.72 µM
2-(5-Methoxy-benzoimidazol-1-yl)-4-phe-nyl-thiazole-5-car-boxylic acid; compoundwith 2-(6-methoxy-benzoimidazol-1-yl)-4-phenyl-thiazole-5-carboxylic acid [Example 15]	0.226 µM
2-(5-Methylbenzoimidazol-1-yl)-4-phenylthiazole-5-carboxylic acid and 2-(6-Methylbenzoimidazol-1-yl)-4-phenylthiazole-5-carboxylic acid [Example 4]	1.55 µM
2-[5-(2-Methoxy-ethoxy)-benzo-imidazol-1-yl]-4-phenyl-thiazole-5-carboxylic acid;compound with 2-[6-(2-meth-oxy-ethoxy)-benzo-imidazol-1-yl]-4-phenyl-thiazole-5-carboxylic acid [Example 63]	0.526 µM
COc1cc2ncn(-c3nc(-c4ccccc4)c(C(=O)O)s3)c2cc1OC [Example 1, 2-(5,6-Dimethoxybenzoimidazol-1-yl)-4-phenylthiazole-5-carboxylic acid]	0.107 µM
O=C(O)c1sc(-n2cnc3ccccc32)nc1-c1ccccc1 [Example 2, 2-(Benzoimidazol-1-yl)-4-phenylthiazole-5-carboxylic acid]	0.772 µM
NC(=O)c1sc(-n2cnc3ccccc32)nc1-c1ccccc1 [Example 3, 2-Benzoimidazol-1-yl-4-phenyl-thiazole-5-carboxylic acid amide]	7.36 µM
Cc1cc2ncn(-c3nc(-c4ccccc4)c(C(=O)O)s3)c2cc1C [Example 5, 2-(5,6-Dimethylbenzoimidazol-1-yl)-4-phenylthiazole-5-carboxylic acid]	2.49 µM
COc1cc2ncn(-c3nc(-c4ccccc4)c(C(N)=O)s3)c2cc1OC [Example 6, 2-(5,6-Dimethoxy-benzoimidazol-1-yl)-4-phenyl-thiazole-5-carboxylic acid amide]	1.38 µM
COc1cc2ncn(-c3nc(-c4ccccc4)c(C(=O)N(C)C)s3)c2cc1OC [Example 10, 2-(5,6-Dimethoxy-benzoimidazol-1-yl)-4-phenyl-thiazole-5-carboxylic acid dimethylamide]	1.39 µM
CCNC(=O)c1sc(-n2cnc3cc(OC)c(OC)cc32)nc1-c1ccccc1 [Example 11, 2-(5,6-Dimethoxy-benzoimidazol-1-yl)-4-phenyl-thiazole-5-carboxylic acid ethylamide]	0.916 µM
COc1cc2ncn(-c3nc(-c4ccccc4)c(-c4nnn[nH]4)s3)c2cc1OC [Example 12, 5,6-Dimethoxy-1-[4-phenyl-5-(1H-tetrazol-5-yl)-thiazol-2-yl]-1H-benzoimidazole]	1.1 µM
COc1cc2ncn(-c3nc(-c4ccccc4)c(C(=O)NC4CC4)s3)c2cc1OC [Example 13, 2-(5,6-Dimethoxy-benzoimidazol-1-yl)-4-phenyl-thiazole-5-carboxylic acid cyclopropylamide]	3.31 µM

The next lines start with the values.

IC50	Molecule
1.29 µM	2-(5-Chloro-6-fluoro-benzoimidazol-1-yl)-4-phenyl-thiazole-5-carboxylic acid and 2-(6-chloro-5-fluoro-benzoimidazol-1-yl)-4-phenyl-thiazole-5-carboxylic acid [Example 35]
1.17 µM	2-(5-Chloro-6-methylbenzoimidazol-1-yl)-4-phenylthiazole-5-carboxylic acid and 2-(6-chloro-5-methylbenzoimidazol-1-yl)-4-phenylthiazole-5-carboxylic acid [Example 16]
0.388 µM	2-(5-Hydroxy-benzoimidazol-1-yl)-4-phe-nyl-thiazole-5-car-boxylic acid; compoundwith 2-(6-hydroxy-benzoimidazol-1-yl)-4-phenyl-thiazole-5-carboxylic acid [Example 65]
0.826 µM	2-(5-Methoxy-6-methylbenzoimidazol-1-yl)-4-phenylthiazole-5-carboxylic acid and 2-(6-methoxy-5-methylbenzoimidazol-1-yl)-4-phenylthiazole-5-carboxylic acid [Example 59]
2.62 µM	2-(8H-5,7-Dioxa-1,3-diaza-cyclopenta[b]naphthalen-3-yl)-4-phenyl-thiazole-5-carboxylic acid and 2-(8H-5,7-Dioxa-1,3-diaza-cyclopenta[b]naphthalen-1-yl)-4-phenyl-thiazole-5-carboxylic acid [Example 9]
0.069 µM	COc1cc2ncn(-c3nc(-c4cccc(F)c4)c(C(=O)O)s3)c2cc1OC [Example 17, 2-(5,6-Dimethoxy-benzoimidazol-1-yl)-4-(3-fluoro-phenyl)-thiazole-5-carboxylic acid]
2.39 µM	COc1ccc(-c2nc(-n3cnc4cc(OC)c(OC)cc43)sc2C(=O)O)cc1OC [Example 18, 2-(5,6-Dimethoxy-benzoimidazol-1-yl)-4-(3,4-dimethoxy-phenyl)-thiazole-5-carboxylic acid]
0.087 µM	COc1cc2ncn(-c3nc(-c4ccc(F)c(Cl)c4)c(C(=O)O)s3)c2cc1OC [Example 19, 4-(3-Chloro-4-fluoro-phenyl)-2-(5,6-dimethoxy-benzoimidazol-1-yl)-thiazole-5-carboxylic acid]
0.127 µM	COc1cccc(-c2nc(-n3cnc4cc(OC)c(OC)cc43)sc2C(=O)O)c1 [Example 20, 2-(5,6-Dimethoxy-benzoimidazol-1-yl)-4-(3-methoxy-phenyl)-thiazole-5-carboxylic acid]
3.6 µM	COc1cc2ncn(-c3nc(-c4ccccc4Cl)c(C(=O)O)s3)c2cc1OC [Example 21, 4-(2-Chloro-phenyl)-2-(5,6-dimethoxy-benzoimidazol-1-yl)-thiazole-5-carboxylic acid]
0.125 µM	COc1cc2ncn(-c3nc(-c4ccc5c(c4)OCO5)c(C(=O)O)s3)c2cc1OC [Example 22, 4-Benzo[1,3]dioxol-5-yl-2-(5,6-dimethoxy-benzoimidazol-1-yl)-thiazole-5-carboxylic acid]
0.216 µM	COc1cc2ncn(-c3nc(-c4ccc(Cl)c(Cl)c4)c(C(=O)O)s3)c2cc1OC [Example 23, 4-(3,4-Dichloro-phenyl)-2-(5,6-dimethoxy-benzoimidazol-1-yl)-thiazole-5-carboxylic acid]
0.068 µM	COc1cc2ncn(-c3nc(-c4cccc(C(C)C)c4)c(C(=O)O)s3)c2cc1OC [Example 24, 2-(5,6-Dimethoxy-benzoimidazol-1-yl)-4-(3-isopropyl-phenyl)-thiazole-5-carboxylic acid]
0.781 µM	COc1cc2ncn(-c3nc(-c4ccsc4)c(C(=O)O)s3)c2cc1OC [Example 25, 2-(5,6-Dimethoxy-benzoimidazol-1-yl)-4-thiophen-3-yl-thiazole-5-carboxylic acid]
